Converted amounts (≈) assume the structure as drawn.
Columns and labels:
Assay type in all cases: cell-based
[1] = system: PSEUDOMONAS AERUGINOSA BMH10; assay: In vitro antibacterial activity, MIC, BHI agar dilution; details: P. aeruginosa BMH10, unit assumed
[2] = system: STAPHYLOCOCCUS AUREUS A-5278; assay: as above; details: S. aureus A-5278, unit assumed
[3] = system: MYCOBACTERIUM SMEGMATIS ATCC 114; assay: as above; details: M. smegmatis ATCC 114, unit assumed
[4] = system: STREPTOCOCCUS PYOGENES PIU 2548; assay: as above; details: S. pyogenes PIU 2548, unit assumed
[5] = system: PROVIDENCIA STUARTII CMX 640; details: P. stuartii CMX 640; BHI agar; unit assumed
[6] = system: STAPHYLOCOCCUS AUREUS ATCC 6538P; assay: In vitro antibacterial activity, MIC, BHI agar dilution; details: S. aureus ATCC 6538P, 35-37° C., 20 to 24 hours, unit assumed
CANDIDA ALBICANS CCH 442 = assay: as above; details: C. albicans CCH 442, unit assumed
[7] = system: PSEUDOMONAS AERUGINOSA DPHD-5263; assay: as above; details: P. aeruginosa DPHD-5263, unit assumed
ESCHERICHIA COLI DC-2 = assay: as above; details: E. coli DC-2, unit assumed
H. Influenza Dill AMP R = assay: In vitro antibacterial activity against H. Influenza Dill AMP R, MIC; details: separate assay, unit assumed
Experimental: Representative compounds of the present invention were assayed in vitro for antibacterial activity as follows: Twelve petri dishes containing successive aqueous dilutions of the test compound mixed with 10 mL of sterilized Brain Heart Infusion (BHI) agar (Difco 0418-01-5) were prepared. Each plate was inoculated with 1:100 (or 1:10 for slow-growing strains, such as Micrococcus and Streptococcus) dilutions of up to 32 different microorganisms, using a Steers replicator block. The inoculated plates were incubated at 35-37° C. for 20 to 24 hours. In addition, a control plate, using BHI agar containing no test compound, was prepared and incubated at the beginning and end of each test.
After incubation, each plate was visually inspected. The minimum inhibitory concentration (MIC) was defmed as the lowest concentration of drug yielding no growth, a slight haze, or sparsely isolated colonies on the inoculum spot as compared to the growth control.
In a separate assay representative compounds of the invention were assayed in vitro for antibacterial activity against the H. Influenza Dill AMP R strain, according to the protocol described above.

[8] = system: PSEUDOMONAS AERUGINOSA DPHD-2862; assay: In vitro antibacterial activity, MIC, BHI agar dilution; details: P. aeruginosa DPHD-2862, unit assumed
[9] = system: ACINETOBACTER CALCOACETICUS CMX 669; assay: as above; details: A. calcoaceticus CMX 669, unit assumed
[10] = system: PSEUDOMONAS AERUGINOSA K799/61; assay: as above; details: P. aeruginosa K799/61, unit assumed
ESCHERICHIA COLI JUHL = details: E. coli JUHL; BHI agar; unit assumed
[11] = system: STAPHYLOCOCCUS AUREUS NCTC10649M; assay: In vitro antibacterial activity, MIC, BHI agar dilution; details: S. aureus NCTC10649M, unit assumed
[12] = system: PSEUDOMONAS AERUGINOSA 5007; assay: as above; details: P. aeruginosa 5007, unit assumed
[13] = system: STREPTOCOCCUS PYOGENES 930; assay: as above; details: S. pyogenes 930, unit assumed
[14] = system: KLEBSIELLA PNEUMONIAE ATCC 8045; assay: as above; details: K. pneumoniae ATCC 8045, unit assumed
ESCHERICHIA COLI KNK 437 = details: E. coli KNK 437; BHI agar; unit assumed
[15] = system: STAPHYLOCOCCUS AUREUS 1775; assay: In vitro antibacterial activity, MIC, BHI agar dilution; details: S. aureus 1775, unit assumed
[16] = system: ENTEROBACTER AEROGENES ATCC 13048; assay: as above; details: E. aerogenes ATCC 13048, unit assumed
ESCHERICHIA COLI H560 = assay: as above; details: E. coli H560, unit assumed
[17] = system: PSEUDOMONAS AERUGINOSA K799/WT; assay: as above; details: P. aeruginosa K799/WT, unit assumed
[18] = system: STREPTOCOCCUS PYOGENES EES61; assay: as above; details: S. pyogenes EES61, unit assumed
EN[…] ATCC 8043 = assay: as above; details: E. faecium ATCC 8043, unit assumed
In short: (§1)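 BHI agar dilution, 12 plates; inoculum 1:100 (1:10 slow-growing strains), Steers replicator; 35-37° C, 20-24 h. MIC = lowest conc. with no growth/slight haze/sparse colonies vs growth control, visual read. Erythromycin A reference plate.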

STR[…] 508 = assay: as above; details: S. agalactiae CMX 508, unit assumed
In short: as §1

M[…] ATCC 9341 = assay: as above; details: M. luteus ATCC 9341, unit assumed
In short: as §1

M[…] ATCC 4698 = assay: as above; details: M. luteus ATCC 4698, unit assumed
In short: as §1

[19] = system: STAPHYLOCOCCUS EPIDERMIDIS 3519; details: S. epidermidis 3519; BHI agar; unit assumed
[20] = system: STAPHYLOCOCCUS AUREUS CMX 553; assay: In vitro antibacterial activity, MIC, BHI agar dilution; details: S. aureus CMX 553, unit assumed
PSEUDOMONAS CEPACIA 296I = assay: as above; details: P. cepacia 296I, unit assumed
ESCHERICHIA COLI SS = assay: as above; details: E. coli SS, unit assumed
[21] = system: STAPHYLOCOCCUS AUREUS A5177; assay: as above; details: S. aureus A5177, unit assumed
[22] = system: STAPHYLOCOCCUS AUREUS CMX 642A; assay: as above; details: S. aureus CMX 642A, unit assumed
[23] = system: STREPTOCOCCUS BOVIS A-5169; assay: as above; details: S. bovis A-5169, unit assumed

Structure (SMILES)	MIC [1] [µg/mL]	MIC [2] [µg/mL]	MIC [3] [µg/mL]	MIC [5] [µg/mL]	MIC (CANDIDA ALBICANS CCH 442) [µg/mL]	MIC [7] [µg/mL]	MIC (ESCHERICHIA COLI DC-2) [µg/mL]	MIC (H. Influenza Dill AMP R) [µg/mL]	MIC [8] [µg/mL]	MIC [9] [µg/mL]	MIC [10] [µg/mL]	MIC (ESCHERICHIA COLI JUHL) [µg/mL]	MIC [11] [µg/mL]	MIC [12] [µg/mL]	MIC [13] [µg/mL]	MIC [14] [µg/mL]	MIC (ESCHERICHIA COLI KNK 437) [µg/mL]	MIC [15] [µg/mL]	MIC [16] [µg/mL]	MIC (ESCHERICHIA COLI H560) [µg/mL]	further results
CC[C@H]1OC(=O)[C@H](C)C(=O)[C@H](C)[C@@H](O[C@@H]2O[C@H](C)C[C@H](N(C)C)[C@H]2O)[C@](C)(OC)C[C@@H](C)C2=N[C@@H]3CNC[C@@H]3N3C(=O)O[C@@]1(C)[C@H]3[C@H]2C [Example 19]	50 (≈ 73.7 µM)	> 100	3.1 (≈ 4.57 µM)	> 100	> 100	> 100	6.2 (≈ 9.13 µM)	16 (≈ 23.6 µM)	> 100	6.2 (≈ 9.13 µM)	0.39 (≈ 0.574 µM)	12.5 (≈ 18.4 µM)	0.39 (≈ 0.574 µM)	> 100	> 100	12.5 (≈ 18.4 µM)	6.2 (≈ 9.13 µM)	> 100	12.5 (≈ 18.4 µM)	3.1 (≈ 4.57 µM)	MIC [4]: 0.78 µg/mL (≈ 1.15 µM); MIC [6]: 0.39 µg/mL (≈ 0.574 µM); MIC [17]: > 100 µg/mL; MIC [18]: 0.05 µg/mL (≈ 0.0737 µM); MIC (EN[…] ATCC 8043): 0.05 µg/mL (≈ 0.0737 µM); MIC (STR[…] 508): 0.05 µg/mL (≈ 0.0737 µM); MIC (M[…] ATCC 9341): 0.1 µg/mL (≈ 0.147 µM); MIC (M[…] ATCC 4698): 0.2 µg/mL (≈ 0.295 µM); MIC [19]: 0.39 µg/mL (≈ 0.574 µM); MIC [20]: 0.39 µg/mL (≈ 0.574 µM); MIC (PSEUDOMONAS CEPACIA 296I): > 100 µg/mL; MIC (ESCHERICHIA COLI SS): 0.2 µg/mL (≈ 0.295 µM); MIC [21]: 0.39 µg/mL (≈ 0.574 µM); MIC [22]: 0.39 µg/mL (≈ 0.574 µM); MIC [23]: 0.005 µg/mL (≈ 0.00737 µM)
CC[C@H]1OC(=O)[C@H](C)C(=O)[C@H](C)[C@@H](O[C@@H]2O[C@H](C)C[C@H](N(C)C)[C@H]2O)[C@](C)(OC)C[C@@H](C)C2=NC[C@H](CCCc3ccccc3)N3C(=O)O[C@@]1(C)[C@H]3[C@H]2C [Example 40]	> 100	> 100	0.39 (≈ 0.516 µM)	> 100	> 100	> 100	100 (≈ 132 µM)	4 (≈ 5.29 µM)	> 100	50 (≈ 66.1 µM)	0.78 (≈ 1.03 µM)	> 100	0.78 (≈ 1.03 µM)	> 100	100 (≈ 132 µM)	> 100	> 100	> 100	> 100	25 (≈ 33.1 µM)	MIC [4]: 0.2 µg/mL (≈ 0.265 µM); MIC [6]: 0.78 µg/mL (≈ 1.03 µM); MIC [17]: > 100 µg/mL; MIC [18]: 0.02 µg/mL (≈ 0.0265 µM); MIC (EN[…] ATCC 8043): 0.05 µg/mL (≈ 0.0661 µM); MIC (STR[…] 508): 0.05 µg/mL (≈ 0.0661 µM); MIC (M[…] ATCC 9341): 0.05 µg/mL (≈ 0.0661 µM); MIC (M[…] ATCC 4698): 0.39 µg/mL (≈ 0.516 µM); MIC [19]: 0.39 µg/mL (≈ 0.516 µM); MIC [20]: 0.78 µg/mL (≈ 1.03 µM); MIC (PSEUDOMONAS CEPACIA 296I): > 100 µg/mL; MIC (ESCHERICHIA COLI SS): 0.78 µg/mL (≈ 1.03 µM); MIC [21]: 0.78 µg/mL (≈ 1.03 µM); MIC [22]: 0.78 µg/mL (≈ 1.03 µM); MIC [23]: 0.02 µg/mL (≈ 0.0265 µM)
CC[C@H]1OC(=O)[C@H](C)C(=O)[C@H](C)[C@@H](O[C@@H]2O[C@H](C)C[C@H](N(C)C)[C@H]2O)[C@](C)(OC)C[C@@H](C)C2=N[C@H](COCc3cc(C)c4ccccc4n3)CN3C(=O)O[C@@]1(C)[C@H]3[C@H]2C [Example 83]	> 100	> 100	0.39 (≈ 0.474 µM)	> 100	> 100	> 100	> 100	16 (≈ 19.4 µM)	> 100	100 (≈ 122 µM)	6.2 (≈ 7.53 µM)	> 100	0.2 (≈ 0.243 µM)	> 100	100 (≈ 122 µM)	> 100	> 100	> 100	> 100	> 100	MIC [4]: 0.39 µg/mL (≈ 0.474 µM); MIC [6]: 0.2 µg/mL (≈ 0.243 µM); MIC [17]: > 100 µg/mL; MIC [18]: 0.01 µg/mL (≈ 0.0122 µM); MIC (EN[…] ATCC 8043): 0.05 µg/mL (≈ 0.0608 µM); MIC (STR[…] 508): 0.01 µg/mL (≈ 0.0122 µM); MIC (M[…] ATCC 9341): 0.05 µg/mL (≈ 0.0608 µM); MIC (M[…] ATCC 4698): 0.39 µg/mL (≈ 0.474 µM); MIC [19]: 0.39 µg/mL (≈ 0.474 µM); MIC [20]: 0.2 µg/mL (≈ 0.243 µM); MIC (PSEUDOMONAS CEPACIA 296I): 50 µg/mL (≈ 60.8 µM); MIC (ESCHERICHIA COLI SS): 1.56 µg/mL (≈ 1.9 µM); MIC [21]: 0.2 µg/mL (≈ 0.243 µM); MIC [22]: 0.2 µg/mL (≈ 0.243 µM); MIC [23]: 0.02 µg/mL (≈ 0.0243 µM)
CC[C@H]1OC(=O)[C@H](C)C(=O)[C@H](C)[C@@H](O[C@@H]2O[C@H](C)C[C@H](N(C)C)[C@H]2O)[C@](C)(OC)C[C@@H](C)C2=NC3CN(C(C)=O)CC3N3C(=O)O[C@@]1(C)[C@H]3[C@H]2C (stereo partly drawn) [Example 125]	> 100	> 100	50 (≈ 69.4 µM)	> 100	> 100	> 100	> 100	128 (≈ 178 µM)	> 100	100 (≈ 139 µM)	6.2 (≈ 8.6 µM)	> 100	6.2 (≈ 8.6 µM)	> 100	> 100	> 100	> 100	> 100	> 100	> 100	MIC [17]: > 100 µg/mL; MIC [18]: 0.1 µg/mL (≈ 0.139 µM); MIC (EN[…] ATCC 8043): 1.56 µg/mL (≈ 2.16 µM); MIC (STR[…] 508): 0.39 µg/mL (≈ 0.541 µM); MIC (M[…] ATCC 9341): 0.78 µg/mL (≈ 1.08 µM); MIC (M[…] ATCC 4698): 6.2 µg/mL (≈ 8.6 µM); MIC [19]: 6.2 µg/mL (≈ 8.6 µM); MIC [20]: 6.2 µg/mL (≈ 8.6 µM); MIC (PSEUDOMONAS CEPACIA 296I): > 100 µg/mL; MIC (ESCHERICHIA COLI SS): 0.78 µg/mL (≈ 1.08 µM); MIC [21]: 6.2 µg/mL (≈ 8.6 µM); MIC [22]: 12.5 µg/mL (≈ 17.3 µM); MIC [23]: 0.2 µg/mL (≈ 0.277 µM)

From US6274715A, “Tricyclic erythromycin derivatives” (priority 1997, dated 2001)
